# How the values were obtained:
# [1] = tested on: Mycobacterium tuberculosis; assay: microbe, parasite or virus in culture; conditions: H37Rv
# Description: Antitubercular activity against Mycobacterium tuberculosis H37Rv after 7 to 14 days by broth micro dilution method
# [2] = Cytotoxicity against human HeLa cells assessed as cell viability at 20 uM after 24 hrs by resazurin dye-based fluorescence assay relative to control; conditions: read-out: Activity
# HeLa = assay: Cytotoxicity against human HeLa cells assessed as reduction in cell viability after 24 hrs by resazurin dye-based fluorescence assay
# [3] = Intrinsic clearance in rat liver microsomes assessed per mg protein at 1 uM by LC-MS/MS analysis; assay type: ADME, Microsome
# [4] = Metabolic stability in pooled human liver microsomes assessed as percentage of compound remaining at 1 uM by LC-MS/MS analysis; assay type: ADME, Microsome; conditions: read-out: Stability
# [5] = Half life in mouse liver microsomes at 1 uM by LC-MS/MS analysis; assay type: ADME, Microsome
# [6] = Intrinsic clearance in mouse liver microsomes assessed per mg protein at 1 uM by LC-MS/MS analysis; assay type: ADME, Microsome
# [7] = Hepatic extraction ratio in rat liver microsomes at 1 uM by LC-MS/MS analysis; assay type: ADME, Microsome; conditions: read-out: ERH
# [8] = Intrinsic clearance in pooled human liver microsomes assessed per mg protein at 1 uM by LC-MS/MS analysis; assay type: ADME, Microsome
# [9] = Aqueous solubility in pH 6.5 PBS at 10 to 220 uM after 20 hrs by nephelometric analysis; assay type: physicochemical
# [10] = Half life in rat liver microsomes at 1 uM by LC-MS/MS analysis; assay type: ADME, Microsome
# [11] = Half life in pooled human liver microsomes at 1 uM by LC-MS/MS analysis; assay type: ADME, Microsome
# [12] = Metabolic stability in rat liver microsomes assessed as percentage of compound remaining at 1 uM by LC-MS/MS analysis; assay type: ADME, Microsome; conditions: read-out: Stability
# [13] = Hepatic extraction ratio in pooled human liver microsomes at 1 uM by LC-MS/MS analysis; assay type: ADME, Microsome; conditions: read-out: ERH
# [14] = Metabolic stability in mouse liver microsomes assessed as percentage of compound remaining at 1 uM by LC-MS/MS analysis; assay type: ADME, Microsome; conditions: read-out: Stability
# [15] = Hepatic extraction ratio in mouse liver microsomes at 1 uM by LC-MS/MS analysis; assay type: ADME, Microsome; conditions: read-out: ERH
SMILES,MIC90 [1] [µM],"viability at 24 h, 20 µM [2] [%]",also measured
C/C(=N\NC(=O)c1ccncc1)c1ccc2c(c1)c(=O)c(C(=O)NCCOCCO)cn2Cc1ccc(Br)cc1,2.7,< 75,–
COCCNC(=O)c1cn(Cc2ccccc2)c2ccc(C(C)=O)cc2c1=O,43.4,< 75,–
COCCNC(=O)c1cn(Cc2ccc(Cl)cc2Cl)c2ccc(/C(C)=N/NC(=O)c3ccncc3)cc2c1=O,4.8,< 75,–
CCn1cc(C(=O)NCCCn2ccnc2)c(=O)c2cc(/C(C)=N/NC(=O)c3ccncc3)ccc21,7.8,< 75,–
CO[C@H]1/C=C/O[C@@]2(C)Oc3c(C)c(O)c4c(O)c(c(/C=N/N5CCN(C)CC5)c(O)c4c3C2=O)NC(=O)/C(C)=C\C=C\[C@H](C)[C@H](O)[C@@H](C)[C@@H](O)[C@@H](C)[C@H](OC(C)=O)[C@@H]1C [RIFAMPIN],0.06,–,–
C/C(=N\NC(=O)c1ccncc1)c1ccc2c(c1)c(=O)c(C(=O)NCCNCCO)cn2Cc1ccccc1,2,< 75,–
C/C(=N\NC(=O)c1ccncc1)c1ccc2c(c1)c(=O)c(C(=O)NCCNCCO)cn2Cc1ccc(Br)cc1,0.8,< 75,–
CC[C@H]1CN2CCc3cc(OC)c(OC)cc3[C@@H]2C[C@@H]1C[C@H]1NCCc2cc(OC)c(OC)cc21 [EMETINE],–,–,IC50 (HeLa): 0.015 µM
CCOC(=O)c1cn(C)c2ccc(/C(C)=N/NC(=O)c3ccncc3)cc2c1=O,0.9,< 75,–
NNC(=O)c1ccncc1 [ISONIAZID],0.2,–,–
CC(=O)c1ccc2c(c1)c(=O)c(C(=O)NCCNCCO)cn2Cc1ccc(Cl)cc1Cl,125,< 75,–
CCOC(=O)c1cn(CC)c2ccc(/C(C)=N/NC(=O)c3ccncc3)cc2c1=O,0.2,< 75,–
CCn1cc(C(=O)NCCOC)c(=O)c2cc(/C(C)=N/NC(=O)c3ccncc3)ccc21,0.8,< 75,CLH [3]: 18.7 µg/min; remaining at 1 µM [4]: 90.6%; half-life at 1 µM [5]: 1.33 h; CLH [6]: 35.3 µg/min; hepatic extraction ratio at 1 µM [7]: < 0.3; CLH [8]: 13.3 µg/min; solubility kinetic at 20 h [9]: 95 µM; half-life at 1 µM [10]: > 2.5 h; half-life at 1 µM [11]: > 2.5 h; remaining at 1 µM [12]: 87%; hepatic extraction ratio at 1 µM [13]: < 0.42; remaining at 1 µM [14]: 77%; hepatic extraction ratio at 1 µM [15]: < 0.49
C/C(=N\NC(=O)c1ccncc1)c1ccc2c(c1)c(=O)c(C(=O)NCCNCCO)cn2Cc1ccc(C(F)(F)F)cc1,1.8,< 75,–
